The results in this text go back to ChEMBL document CHEMBL4196074, “Metallomics for Alzheimer's disease treatment: Use of new generation of chelators combining metal-cation binding and transport properties” (Eur J Med Chem, 2018).

Activity calls are given as the source filed them. Unless noted, no cut-off for these calls is given here.

Data set [1] in a line: Metal chelating activity assessed as compound-Fe3+ complex formation by UV-vis spectrophotometric analysis.
The test system of data set [2] is SH-SY5Y. The data set can be described thus: Antiproliferative activity against human SH-SY5Y cells at 1 uM after 24 to 72 hrs by WST1 assay. It is filed as cell-based. In general terms: Formazan colour is commonly taken as a measure of viable cells.
Data set [3] is described as follows: Metal chelating activity assessed as compound-Cu2+ complex formation by UV-vis spectrophotometric analysis.
Data set [4] in a line: Metal chelating activity assessed as compound-Zn2+ complex formation by UV-vis spectrophotometric analysis.
Data set [5] deals with SH-SY5Y. The data set can be described thus: Neuroprotective activity against amyloid beta (1 to 42 residues) induced cell death in human SH-SY5Y cells expressing APPswe mutant at 1 uM after 48 hrs by WST1 assay. It is filed as functional, cell-based.
The subject of data set [6] is SH-SY5Y. The data set can be described thus: Inhibition of Fe3+-mediated amyloid beta (1 to 42 residues) production in human SH-SY5Y cells expressing APPswe mutant at 1 uM after 72 hrs by ELISA based spectrophotometric analysis. It counts as cell-based.
The subject of data set [7] is SH-SY5Y. The data set can be described thus: Inhibition of Cu2+-mediated amyloid beta (1 to 42 residues) production in human SH-SY5Y cells expressing APPswe mutant at 1 uM after 72 hrs by ELISA based spectrophotometric analysis. It counts as cell-based.
Data set [8] deals with Acetylcholinesterase (Homo sapiens) (UniProt P22303). The data set can be described thus: Inhibition of acetylcholinesterase (unknown origin) at 1 uM using acetylthiocholine chloride as substrate measured for 5 to 40 mins.
Sequence of Acetylcholinesterase (Homo sapiens) (P22303 whole entry): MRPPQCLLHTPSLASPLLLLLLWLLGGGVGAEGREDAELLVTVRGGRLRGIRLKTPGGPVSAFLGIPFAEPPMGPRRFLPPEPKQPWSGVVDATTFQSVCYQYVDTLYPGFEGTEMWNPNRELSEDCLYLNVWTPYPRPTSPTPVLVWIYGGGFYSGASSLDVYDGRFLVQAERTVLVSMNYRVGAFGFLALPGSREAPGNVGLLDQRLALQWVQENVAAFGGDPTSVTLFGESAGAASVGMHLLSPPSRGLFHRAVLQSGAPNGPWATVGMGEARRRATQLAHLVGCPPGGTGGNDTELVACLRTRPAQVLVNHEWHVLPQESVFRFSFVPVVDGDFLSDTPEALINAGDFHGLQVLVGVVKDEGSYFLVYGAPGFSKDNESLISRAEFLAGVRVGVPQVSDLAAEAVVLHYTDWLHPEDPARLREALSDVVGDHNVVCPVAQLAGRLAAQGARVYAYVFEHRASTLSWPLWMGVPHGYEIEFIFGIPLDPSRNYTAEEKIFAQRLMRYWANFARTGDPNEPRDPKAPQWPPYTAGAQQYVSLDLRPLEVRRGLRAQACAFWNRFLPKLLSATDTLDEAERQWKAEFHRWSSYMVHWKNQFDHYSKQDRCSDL
Data set [9] has as its system SH-SY5Y. Nature of the data set: Inhibition of Cu2+-mediated ROS generation in human SH-SY5Y cells expressing APPswe mutant at 1 uM after 72 hrs by DCF-DA dye-based fluorescence spectroscopic analysis. It is filed as cell-based.
In data set [10] the test system is SH-SY5Y. Nature of the data set: Inhibition of Fe3+-mediated ROS generation in human SH-SY5Y cells expressing APPswe mutant at 1 uM after 72 hrs by DCF-DA dye-based fluorescence spectroscopic analysis. It counts as cell-based.
Data set [11] relates to SH-SY5Y. The data set can be described thus: Inhibition of Zn2+-mediated amyloid beta (1 to 42 residues) production in human SH-SY5Y cells expressing APPswe mutant at 1 uM after 72 hrs by ELISA based spectrophotometric analysis. It is filed as cell-based. For orientation: An ELISA detects its analyte on a solid surface through an enzyme-linked reagent.
Data set [12] deals with SH-SY5Y. The data set can be described thus: Inhibition of Zn2+-mediated ROS generation in human SH-SY5Y cells expressing APPswe mutant at 1 uM after 72 hrs by DCF-DA dye-based fluorescence spectroscopic analysis. It is filed as cell-based.
The subject of data set [13] is SH-SY5Y. The data set can be described thus: Inhibition of Cu2+-induced toxicity in human SH-SY5Y cells expressing APPswe mutant assessed as increase in cell viability at 1 uM after 72 hrs by WST1 assay. It is filed as cell-based.
Data set [14] has as its system SH-SY5Y. Nature of the data set: Inhibition of Cu2+-induced caspase-3 activity in human SH-SY5Y cells expressing APPswe mutant at 1 uM after 72 hrs by AcDEVD substrate-based spectrophotometric analysis. It counts as cell-based.
Data set [15] can be described thus: Effective permeability of the compound at 10^-5 mol/L after 5 hrs by UV-based PAMPA. It is filed as ADME. Particulars: read-out: Peff. Background: In PAMPA a lipid-coated filter parts donor from acceptor wells.

As for `COc1ccc(Nc2c(N/N=C/c3ccc4ccccc4n3)c(=O)c2=O)cc1`, the result in data set [1] and in [3] was Active. Besides, the Activity entry with SH-SY5Y [2] is recorded as “Non-Toxic”. Also, the outcome (in [4]; in the data set with SH-SY5Y [5]) was inactive. The inhibition result (in the data set on SH-SY5Y [6]; in the data set with SH-SY5Y [7]; in [8]; in the data set with SH-SY5Y [9]; in the data set with SH-SY5Y [10]) was “inactive” in each case.
`C[C@H](CCC(=O)Nc1ccc(C(=O)N/N=C/c2ccc(C(C)(C)C)cc2O)cc1)[C@H]1CC[C@H]2[C@@H]3[C@H](O)C[C@@H]4C[C@H](O)CC[C@]4(C)[C@H]3C[C@H](O)[C@]12C` (stereo in doubt): the outcome in [1], in data set [3] and in [4] was Active. Further, the Activity entry in the data set on SH-SY5Y [2] is recorded as “Non-Toxic”. Further, the inhibition result (with SH-SY5Y [11]; in the data set with SH-SY5Y [6]; in the data set with SH-SY5Y [7]; in data set [8]; in the data set with SH-SY5Y [9]; in the data set on SH-SY5Y [12]) was “inactive” in each case. The inhibition entry with SH-SY5Y [10] was “inactive”. In addition, the outcome in the data set with SH-SY5Y [5] was inactive.
`COc1cccc(/C=N/NC(=O)CC[C@@H](C)[C@H]2CC[C@H]3[C@@H]4[C@H](O)C[C@@H]5C[C@H](O)CC[C@]5(C)[C@H]4C[C@H](O)[C@]23C)c1O`: the inhibition entry in the data set on SH-SY5Y [13] and in the data set on SH-SY5Y [14] was “Active” throughout. Also, the result in [1] and in [4] was inactive. In the data set on SH-SY5Y [2], the Activity result is recorded as “Non-Toxic”. Besides, the result (in [3]; in the data set on SH-SY5Y [5]) was Active. Further, the inhibition entry (with SH-SY5Y [7]; in data set [8]) was “inactive” throughout.
Consider `CCN1/C(=C/c2c(N/N=C/c3cc(C(C)(C)C)ccc3O)c(=O)c2=O)Sc2ccccc21`, for which the outcome in data set [1] and in data set [3] was Active. In addition, the Activity result in the data set with SH-SY5Y [2] was “Non-Toxic”. In addition, the outcome (in [4]; in the data set on SH-SY5Y [5]) was inactive. For the same molecule, the inhibition result (with SH-SY5Y [6]; with SH-SY5Y [7]; in [8]; in the data set with SH-SY5Y [9]; in the data set with SH-SY5Y [10]) was “inactive” each time.
Turning to `COc1ccc(Nc2c(N/N=C/c3c(CO)cnc(C)c3O)c(=O)c2=O)cc1`, the result in data set [1] and in [3] was Active. Moreover, the Activity entry in the data set on SH-SY5Y [2] is given as “Non-Toxic”. For the same molecule, the outcome (in data set [4]; with SH-SY5Y [5]) was inactive. Also, the inhibition result (in the data set with SH-SY5Y [6]; with SH-SY5Y [7]; in data set [8]; in the data set on SH-SY5Y [9]; in the data set with SH-SY5Y [10]) was “inactive” each time. For the same molecule, in data set [15], the Papp at 5 h, 10 µM was found to be 1.6 ×10⁻⁶ cm/s.
With `CCN1/C(=C/c2c(N/N=C/c3ccc4ccccc4n3)c(=O)c2=O)Sc2ccccc21`, the outcome in data set [1], in [3] and in data set [4] was Active. In addition, the Activity entry in the data set on SH-SY5Y [2] is reported as “Non-Toxic”. In addition, the inhibition entry (in the data set with SH-SY5Y [11]; in the data set with SH-SY5Y [6]; in the data set on SH-SY5Y [7]; in data set [8]; in the data set on SH-SY5Y [9]; in the data set on SH-SY5Y [12]) was “inactive” each time. The inhibition entry with SH-SY5Y [10] was “inactive”. In addition, the result with SH-SY5Y [5] was inactive.
On to `C[C@H](CCC(=O)Nc1ccc(C(=O)NN=C(c2ccccn2)c2ccccn2)cc1)[C@H]1CC[C@H]2[C@@H]3[C@H](O)C[C@@H]4C[C@H](O)CC[C@]4(C)[C@H]3C[C@H](O)[C@]12C`, for which the outcome in [1] and in [3] was Active. Further, the Activity result with SH-SY5Y [2] is “Non-Toxic”. Also, the outcome (in data set [4]; with SH-SY5Y [5]) was inactive. The inhibition result (in the data set on SH-SY5Y [6]; in the data set with SH-SY5Y [7]; in [8]; in the data set on SH-SY5Y [9]; in the data set on SH-SY5Y [10]) was “inactive” each time.
With `CCN1/C(=C/c2c(N/N=C/c3cccc(OC)c3O)c(=O)c2=O)Sc2ccccc21`, the outcome in [1] and in data set [3] was Active. Also, the Activity entry in the data set on SH-SY5Y [2] is “Non-Toxic”. Also, the result (in data set [4]; in the data set on SH-SY5Y [5]) was inactive. Further, the inhibition result (in the data set on SH-SY5Y [6]; in the data set on SH-SY5Y [7]; in data set [8]; with SH-SY5Y [9]; with SH-SY5Y [10]) was “inactive” throughout.
In the case of `Oc1c(I)cc(Cl)c2cccnc12`, the inhibition entry with SH-SY5Y [11], in the data set on SH-SY5Y [6] and in the data set with SH-SY5Y [7] was “Active” throughout.
Consider `C[C@H](CCC(=O)Nc1ccc(C(=O)N/N=C/c2ccc3ccccc3n2)cc1)[C@H]1CC[C@H]2[C@@H]3[C@H](O)C[C@@H]4C[C@H](O)CC[C@]4(C)[C@H]3C[C@H](O)[C@]12C` (stereo in doubt), for which the result in [1], in data set [3] and in data set [4] was Active. The Activity result with SH-SY5Y [2] is listed as “Non-Toxic”. Besides, the inhibition result (with SH-SY5Y [11]; in the data set on SH-SY5Y [6]; with SH-SY5Y [7]; in data set [8]; in the data set with SH-SY5Y [9]; in the data set on SH-SY5Y [12]) was “inactive” throughout. Further, in the data set on SH-SY5Y [10], the inhibition entry is “inactive”. In the data set on SH-SY5Y [5], the outcome was inactive.
`COc1ccc(Nc2c(N/N=C/c3ccc(C(C)(C)C)cc3O)c(=O)c2=O)cc1`: the result in data set [1] and in [3] was Active. For the same molecule, the Activity entry in the data set with SH-SY5Y [2] is recorded as “Non-Toxic”. In addition, the outcome (in data set [4]; with SH-SY5Y [5]) was inactive. The inhibition entry (in the data set on SH-SY5Y [6]; with SH-SY5Y [7]; in [8]; in the data set with SH-SY5Y [9]; with SH-SY5Y [10]) was “inactive” each time.
On to `COc1ccc(Nc2c(N/N=C/c3cccc(OC)c3O)c(=O)c2=O)cc1`, for which the outcome in [1] and in [3] was Active. Moreover, in the data set on SH-SY5Y [2], the Activity result was “Non-Toxic”. Besides, the outcome (in data set [4]; in the data set on SH-SY5Y [5]) was inactive. For the same molecule, the inhibition result (with SH-SY5Y [6]; in the data set on SH-SY5Y [7]; in data set [8]; with SH-SY5Y [9]; with SH-SY5Y [10]) was “inactive” in each case.
Regarding `CCN1/C(=C/c2c(N/N=C/c3c(CO)cnc(C)c3O)c(=O)c2=O)Sc2ccccc21`, the result in data set [1] and in [3] was Active. Also, the Activity entry in the data set with SH-SY5Y [2] is “Non-Toxic”. In addition, the result (in data set [4]; in the data set with SH-SY5Y [5]) was inactive. In addition, the inhibition entry (in the data set with SH-SY5Y [6]; in the data set with SH-SY5Y [7]; in [8]; in the data set on SH-SY5Y [9]; in the data set on SH-SY5Y [10]) was “inactive” each time. Moreover, in data set [15], the Papp at 5 h, 10 µM was determined as 2.8 ×10⁻⁶ cm/s.
`COc1cccc(/C=N/NC(=O)c2ccc(NC(=O)CC[C@@H](C)[C@H]3CC[C@H]4[C@@H]5[C@H](O)C[C@@H]6C[C@H](O)CC[C@]6(C)[C@H]5C[C@H](O)[C@]34C)cc2)c1O` (stereo in doubt): the outcome in data set [1], in data set [3] and in data set [4] was Active. For the same molecule, the Activity result with SH-SY5Y [2] is on record as “Non-Toxic”. In addition, the inhibition result (in the data set on SH-SY5Y [11]; with SH-SY5Y [6]; with SH-SY5Y [7]; in data set [8]; with SH-SY5Y [9]; in the data set on SH-SY5Y [12]) was “inactive” each time. Moreover, in the data set with SH-SY5Y [10], the inhibition entry is “inactive”. Further, the outcome with SH-SY5Y [5] was inactive.
